# Measured values reported in PMC7369796, “The Diverse Piscidin Repertoire of the European Sea Bass (Dicentrarchus labrax): Molecular Characterization and Antimicrobial Activities” (International Journal of Molecular Sciences, 2020).
# Like-named read-outs stand apart in the source and are kept apart here. Ends that are not written are not given here.
# Assays:
# [1] = tested on: Vibro anguillarum (DSM 21597); assay type: cell-based, V. anguillarum; conditions: DSM 21597, 24 h
# Experimental: (§1) The biological activity of sea bass piscidin mature peptides was studied by determining their antimicrobial properties. Synthetic piscidin peptides were based on the predicted coding sequences and were commercially produced (NZYtech, Lisbon, Portugal) with an additional C-terminal amidation (Table S3). Peptides were incubated in serial dilutions with ten bacterial strains, known to cause severe diseases in aquaculture: Photobacterium damselae subsp. piscicida (DSM 22834), P. damselae subsp. damselae (DSM 7482), Vibro anguillarum (DSM 21597), V. alginolyticus (DSM 2171), Aeromonas salmonicida subsp. salmonicida (DSM 19634), A. hydrophila subsp. hydrophila (DSM 30187), Yersinia ruckeri (DSM 18506), Edwardsiella tarda (DSM 30052), Lactococcus garviae (DSM 20684) and Streptococcus parauberis (DSM 6631). In short, 1 × 10^8 bacteria per milliliter were incubated in optimal growth conditions with the peptide in flat-bottom 96-well plates, in a final volume of 100 µL, and OD was read at 600 nm in a plate reader after 24 h of incubation. Wells with no added peptide were used as controls, and wells without bacteria were used as blanks. The minimal inhibitory concentration (MIC) was determined as the lowest concentration of piscidin that reduced 50% of bacterial growth when compared to the controls. The MICs reported correspond to representative results from two independent experiments.
# [2] = tested on: Leishmania infantum promastigotes (strain MHOM/MA/67/ITMAP-263); assay type: cell-based; conditions: 72 h
# Experimental: (§2) The anti-protozoal activity of sea bass piscidins was evaluated using two parasites: Trypanosoma brucei brucei bloodstream forms (strain Lister 427) and Leishmania infantum promastigotes (strain MHOM/MA/67/ITMAP-263). Parasites were incubated in optimal growth conditions with serial dilutions of the different peptides in flat-bottom 96-well plates, in a final volume of 200 µL, during 72 h. Cell metabolic activity was measured by resazurin reduction. Briefly, 20 µL of resazurin (50 µM) were added and incubated for 4 h. The fluorescence of resorufin, resulting from resazurin reduction by metabolically active cells, was measured at λex = 544 nm and λem = 590 nm in Synergy 2 (BioTek, Winooski, Vermont, USA). Cultures with no added peptide were used as negative controls and cultures with the reference drugs, namely pentamidine (10 nM) and miltefosine (40 µM) were used as positive controls for T. brucei and L. infantum inhibition assays, respectively. Wells with culture medium were used as blanks. Anti-parasitic effect was evaluated by the determination of IC50 value (concentration required to inhibit growth in 50%) and calculated by non-linear regression analysis using GraphPad Prism version 8.1.1 for Windows (GraphPad Software, San Diego, CA, USA). The IC50 reported correspond to representative results from two independent experiments.
# [3] = tested on: Streptococcus parauberis (DSM 6631); assay type: cell-based
# Experimental: as §1
# [4] = tested on: V. alginolyticus (DSM 2171); assay type: cell-based; conditions: DSM 2171, 24 h
# Experimental: as §1
# [5] = tested on: Aeromonas salmonicida subsp. salmonicida (DSM 19634); assay type: cell-based; conditions: DSM 19634, 24 h
# Experimental: as §1
# [6] = tested on: Yersinia ruckeri (DSM 18506); assay type: cell-based; conditions: DSM 18506, 24 h
# Experimental: as §1
# [7] = tested on: Photobacterium damselae subsp. piscicida (DSM 22834); assay type: cell-based; conditions: DSM 22834, 24 h
# Experimental: as §1
# [8] = tested on: Lactococcus garviae (DSM 20684); assay type: cell-based; conditions: DSM 20684, 24 h
# Experimental: as §1
# [9] = tested on: P. damselae subsp. damselae (DSM 7482); assay type: cell-based, Photobacterium damselae subsp. damselae; conditions: DSM 7482, 24 h
# Experimental: as §1
# [10] = tested on: Trypanosoma brucei brucei bloodstream forms (strain Lister 427); assay: Antiparasitic activity (resazurin reduction, IC50); assay type: cell-based; conditions: T. brucei brucei bloodstream forms; 72 h, serial dilutions up to 100 µM, 96-well, 200 µL; resazurin reduction (fluorescence 544/590 nm); non-linear regression; means ± SD, two separate experiments
# Experimental: as §2
Substance,MIC [1],IC50 [2],"MIC ([3]; DSM 6631, 24 h)",MIC [4],MIC [5],MIC [6],MIC [7],MIC [8],MIC [9],IC50 [10],"MIC ([3]; S. parauberis, 1 × 10^8 bacteria/mL, 96-well, 100 µL, 24 h, OD 600 nm, serial dilutions up to 200 µM, MIC = lowest concentration that reduced 50% of bacterial growth vs controls, means ± SD, two separate experiments, N.A. = not active at the highest concentration tested)"
LIGSLFRGAKAIFRGARQGWRAHKAVSRYRAGYVRRPVVYYHRVYP-NH2 [Piscidin5],10.1 ± 2.7 µM,7.24 ± 0.61 µM,1.3 ± 1.2 µM,36.9 ± 2.3 µM,47.9 ± 6.1 µM,25.4 ± 1.8 µM,3.3 ± 0.1 µM,42.3 ± 16.4 µM,14.8 ± 2.0 µM,4.42 ± 0.12 µM,–
"LFGSLKAWFKGGKQASRDYKYQKDMAKMNKRYGPNWQQGGGQQPPANAQANDQPPADAQANDQPS-NH2 [Piscidin6, synthetic putative mature peptide of European sea bass piscidin 6, 65 aa, MT066195]",–,–,–,–,–,–,–,–,–,56.5 ± 1.61 µM,87.7 ± 123.0 µM
FLGRFFRRTQAILRGARQGWRAHKAVSRYRDRYIPETDNNQEQP-NH2 [Piscidin2],146.1 ± 21.4 µM,5.52 ± 0.26 µM,6.9 ± 2.8 µM,66.2 ± 2.0 µM,67.7 ± 0.2 µM,137.6 ± 3.1 µM,9.1 ± 1.7 µM,–,105.8 ± 22.1 µM,1.74 ± 0.13 µM,–
FIHHIFRGIINAGKSIGRFITG-NH2 [Piscidin4],–,8.34 ± 0.81 µM,1.8 ± 1.8 µM,–,–,–,29.1 ± 12.0 µM,48.8 ± 40.1 µM,81.3 ± 9.5 µM,3.24 ± 0.16 µM,–
FLGRVKSMWSGVRNGYKAYKYQRNMAKMNKGYGPNWQQGGGQEPPADAQANDQPP-NH2 [Piscidin7],–,66.77 ± 0.08 µM,–,–,–,–,–,–,–,7.3 ± 0.32 µM,–
FFHHIFRGIVHVGKTIHRLVTG-NH2 [Piscidin1],16.3 ± 0.6 µM,5.2 ± 0.03 µM,2.4 ± 0.8 µM,34.8 ± 0.3 µM,64.2 ± 2.1 µM,48.4 ± 3.8 µM,7.4 ± 1.6 µM,33.9 ± 3.8 µM,15.0 ± 0.2 µM,3.88 ± 0.11 µM,–
